The values below come from ChEMBL document CHEMBL1201862, “PubChem BioAssay data set” (2004).

Assay [1] is described as follows: T. cruzi growth inhibition in host cells, dose response, cell-based, plate reader, dry powder, set 2 (AID 652275). Type of assay: functional.
Assay [2] is described as follows: human group III sPLA2 inhibitors, dose response, biochemical, QFRET, IC50 (AID 743457).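 Note: green fluorescence rise as the enzyme cleaves BODIPY PC-A2 in liposomes; potency for inhibition of the enzyme.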
Assay [3] can be described thus: cytotoxicity toward HCT116 cells – cell-based, CellTiter-Glo luminescence, IC50, dose response (AID 1117332). The class given is functional. The following applies: HCT-116. (In general: Cellular ATP, detected with luciferase, serves as a proxy for viable cell number.)
Assay [4] can be described thus: Concentration-dependent survival of SW480 colon cancer line, luminescence detection with CellTiter-Glo, half-maximal inhibitory concentration (AID 1117338). Type of assay: functional.
A short description of assay [5]: CellTiter-Glo luminescent dose response of DLD-1 viability loss (AID 1117352). The class given is functional.
A short description of assay [6]: HeLa 4N DNA content increase, dose response, cell-based, IC50 (AID 1117351). The class given is functional.
Assay [7] is described as follows: HeLa 2N DNA content increase, dose response, cell-based, IC50 (AID 1117349). Type of assay: functional.
The nature of assay [8]: cytotoxicity toward HT-29 cells – cell-based, CellTiter-Glo luminescence, IC50, dose response (AID 1117330). Type of assay: functional.
Assay [9] is described as follows: RKO cell viability reduction, dose response, CellTiter-Glo luminescence (AID 1117322). Type of assay: functional.
Assay [10] is described as follows: HCT116 cell viability decrease, GSK3B pretreatment – CellTiter-Glo, IC50, dose response (AID 1117339). The following applies: HCT-116. Type of assay: functional.
A short description of assay [11]: cytotoxicity in OVCAR8 ovarian cancer cells, dose response, PAX8 project, cell-based, plate reader, dry powder samples (AID 743197). The class given is functional. The following applies: OVCAR-8.
Assay [12] concerns the target Paired box protein Pax-8 (Homo sapiens, UniProt Q06710). Kind of assay: inhibitors of PAX8-driven TPO luciferase reporter, dose response, RMG-I cells, cherry-pick (AID 687027).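 Note: luciferase reporter driven by Pax8 target thyroperoxidase promoter measured by SteadyGlo luminescence.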 The class given is functional, cell-based. (In general: Reporter assays use an easily measured gene product as a stand-in for the process of interest.)
Assay [13] in a line: HeLa cell cytotoxicity, dose response, cytotoxicity control for MgcRacGAP inhibitor project (AID 624300). Type of assay: functional.
Assay [14] in a line: Fluorescence-based cell-based high throughput dose response assay for inhibitors of the interaction of nucleotide-binding oligomerization domain containing 2 (NOD2) and the receptor-interacting serine-threonine kinase 2 (RIPK2). Type of assay: functional. The following applies: Homo sapiens.
Assay [15] in a line: SNU-C1 cell viability reduction, dose response, CellTiter-Glo luminescence (AID 1117323). Type of assay: functional, cell-based.
Assay [16] is described as follows: cytotoxicity toward Colo320 cells – cell-based, CellTiter-Glo luminescence, IC50, dose response (AID 1117334). The class given is functional. The following applies: COLO 320.
Assay [17] deals with T1, Protein Tat (Human immunodeficiency virus type 1 group M subtype B (isolate HXB2)(HIV-1), UniProt P04608).
T1 sequence (P04608 whole entry): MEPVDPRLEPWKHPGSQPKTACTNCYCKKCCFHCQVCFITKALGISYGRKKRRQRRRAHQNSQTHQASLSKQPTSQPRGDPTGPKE
Type of assay: functional.

The nature of assay [18]: C. albicans growth with fluconazole, confirmation, fluorescence, retest (AID 2467). Type of assay: functional, cell-based.
Assay [19] is described as follows: NIH-3T3 fibroblast cytotoxicity, dose response, cytotoxicity control, cell-based, fluorescence, Alamar Blue, secondary assay (AID 2327).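 Note: NIH-3T3 mouse fibroblasts cultured with fluconazole at 8 µg/mL.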 The class given is functional. (Resazurin is reduced to fluorescent resorufin, in cell work by metabolically active cells.)
The target of assay [20] is Dual specificity tyrosine-phosphorylation-regulated kinase 1A (Rattus norvegicus, UniProt Q63470). Type of assay: biochemical, Homo sapiens.
Assay [21] concerns the target T2, Rac GTPase-activating protein 1 (Homo sapiens, UniProt Q9H0H5).
T2 sequence (Q9H0H5 whole entry): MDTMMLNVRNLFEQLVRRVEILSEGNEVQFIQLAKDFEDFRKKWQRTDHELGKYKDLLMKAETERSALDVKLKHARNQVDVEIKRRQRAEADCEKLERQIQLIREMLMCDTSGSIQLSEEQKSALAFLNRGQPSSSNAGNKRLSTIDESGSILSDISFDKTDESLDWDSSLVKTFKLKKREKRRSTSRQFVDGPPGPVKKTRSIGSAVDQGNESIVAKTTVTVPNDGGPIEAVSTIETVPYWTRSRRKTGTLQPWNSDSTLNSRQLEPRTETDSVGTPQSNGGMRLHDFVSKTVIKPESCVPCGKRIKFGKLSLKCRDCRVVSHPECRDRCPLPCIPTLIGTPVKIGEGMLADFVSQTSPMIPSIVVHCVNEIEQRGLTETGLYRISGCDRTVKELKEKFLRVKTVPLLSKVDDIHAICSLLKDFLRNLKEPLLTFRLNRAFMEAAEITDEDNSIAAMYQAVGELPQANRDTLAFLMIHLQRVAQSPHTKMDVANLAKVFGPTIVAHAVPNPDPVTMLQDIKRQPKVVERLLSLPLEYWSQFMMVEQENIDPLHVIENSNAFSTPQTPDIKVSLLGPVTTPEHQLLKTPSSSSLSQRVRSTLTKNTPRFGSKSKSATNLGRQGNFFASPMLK
Kind of assay: MgcRacGAP GTPase-activating activity inhibitors, confirmation, biochemical, ADP Hunter fluorescence, primary and confirmatory (AID 624330). Type of assay: functional.

Assay [22] addresses Large T antigen (Simian virus 40, UniProt P03070). The class given is functional, Betapolyomavirus macacae.
In assay [23] the target is Genome polyprotein (dengue virus type 2, UniProt P29990). Kind of assay: Dengue-2 NS5 methyltransferase inhibitors, primary screen, biochemical, confirmation dose response (AID 588689). The class given is functional.

Structures are written as SMILES. Calls of active or inactive are those of the source. Some results are limits rather than exact numbers.

Chain of Genome polyprotein (P29990 2492-3391 limits assumed): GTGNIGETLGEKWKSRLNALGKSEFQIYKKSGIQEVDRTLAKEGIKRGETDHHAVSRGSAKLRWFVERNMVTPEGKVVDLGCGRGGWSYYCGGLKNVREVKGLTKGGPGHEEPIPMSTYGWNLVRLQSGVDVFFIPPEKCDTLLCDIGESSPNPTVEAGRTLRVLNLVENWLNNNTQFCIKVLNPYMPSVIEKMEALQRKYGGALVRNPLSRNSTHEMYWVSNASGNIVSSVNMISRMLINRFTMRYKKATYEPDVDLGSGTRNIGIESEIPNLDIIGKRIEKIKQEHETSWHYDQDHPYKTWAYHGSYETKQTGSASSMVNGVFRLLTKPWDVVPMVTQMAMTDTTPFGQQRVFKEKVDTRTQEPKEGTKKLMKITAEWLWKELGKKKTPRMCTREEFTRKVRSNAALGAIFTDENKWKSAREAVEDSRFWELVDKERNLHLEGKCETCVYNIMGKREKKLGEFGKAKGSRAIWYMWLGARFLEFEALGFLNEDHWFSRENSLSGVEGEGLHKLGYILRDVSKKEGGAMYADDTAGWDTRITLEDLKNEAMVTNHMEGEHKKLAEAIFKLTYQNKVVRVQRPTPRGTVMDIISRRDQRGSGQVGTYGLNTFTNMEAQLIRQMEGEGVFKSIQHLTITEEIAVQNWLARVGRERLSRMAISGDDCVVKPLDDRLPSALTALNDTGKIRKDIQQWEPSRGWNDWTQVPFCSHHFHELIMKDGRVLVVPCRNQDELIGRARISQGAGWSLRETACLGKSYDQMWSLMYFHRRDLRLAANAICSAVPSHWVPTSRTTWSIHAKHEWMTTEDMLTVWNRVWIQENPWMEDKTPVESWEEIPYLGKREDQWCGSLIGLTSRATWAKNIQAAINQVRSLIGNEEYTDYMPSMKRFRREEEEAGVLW
Chain of Large T antigen (P03070 whole entry): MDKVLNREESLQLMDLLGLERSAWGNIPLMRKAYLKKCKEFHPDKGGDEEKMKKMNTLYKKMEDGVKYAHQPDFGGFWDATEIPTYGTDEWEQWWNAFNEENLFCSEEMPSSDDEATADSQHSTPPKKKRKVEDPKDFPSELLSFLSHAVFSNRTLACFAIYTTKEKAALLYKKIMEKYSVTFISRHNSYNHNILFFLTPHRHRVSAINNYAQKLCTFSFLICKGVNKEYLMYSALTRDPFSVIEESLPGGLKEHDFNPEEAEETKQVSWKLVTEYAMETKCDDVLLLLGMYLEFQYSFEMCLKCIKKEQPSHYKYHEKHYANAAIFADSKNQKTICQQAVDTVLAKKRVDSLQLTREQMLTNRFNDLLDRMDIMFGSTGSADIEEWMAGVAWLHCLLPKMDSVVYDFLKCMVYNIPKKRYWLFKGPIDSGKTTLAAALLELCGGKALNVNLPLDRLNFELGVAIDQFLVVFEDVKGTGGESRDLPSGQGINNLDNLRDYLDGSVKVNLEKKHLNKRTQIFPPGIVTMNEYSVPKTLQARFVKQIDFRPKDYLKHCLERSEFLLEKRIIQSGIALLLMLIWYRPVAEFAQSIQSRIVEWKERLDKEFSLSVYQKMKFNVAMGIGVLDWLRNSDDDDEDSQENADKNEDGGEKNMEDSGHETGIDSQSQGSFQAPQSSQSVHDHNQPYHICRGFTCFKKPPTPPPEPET
Chain of Paired box protein Pax-8 (Q06710 whole entry): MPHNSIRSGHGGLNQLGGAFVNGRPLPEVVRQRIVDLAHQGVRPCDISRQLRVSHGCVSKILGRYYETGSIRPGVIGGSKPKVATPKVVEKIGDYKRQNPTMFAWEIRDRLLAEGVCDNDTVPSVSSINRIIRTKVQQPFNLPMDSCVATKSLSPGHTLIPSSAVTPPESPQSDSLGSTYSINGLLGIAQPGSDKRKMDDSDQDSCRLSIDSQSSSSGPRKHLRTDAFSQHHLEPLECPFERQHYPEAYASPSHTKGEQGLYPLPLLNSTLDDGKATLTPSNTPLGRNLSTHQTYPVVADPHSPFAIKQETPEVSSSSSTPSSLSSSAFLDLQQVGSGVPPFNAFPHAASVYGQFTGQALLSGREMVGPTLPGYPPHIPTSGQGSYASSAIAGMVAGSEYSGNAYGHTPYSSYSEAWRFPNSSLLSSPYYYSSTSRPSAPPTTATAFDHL

For `O=C(Cc1ccccn1)N1CCCCN2[C@@H](CO)[C@H](c3ccc(-c4ccc(F)cc4)cc3)[C@@H]2C1`, the AC50 (commonly the concentration at which the activity in the assay is half-maximal) in assay [1] was 1.43 µM (active).

For `O=C1C(=O)N(Cc2ccc(-c3ccsc3)cc2)c2ccc(OC(F)(F)F)cc21`, the IC50 (commonly the concentration that gives 50% inhibition) in assay [2] was 25.5 µM (inactive).

As for `COC(=O)Nc1nc2cc([S+]([O-])c3ccccc3)ccc2[nH]1` (centres undefined) [OXFENDAZOLE], the IC50 in assay [3] is 0.001 µM (active); in assay [4], > 20 µM (inactive); in [5] it was > 20 µM (inactive); in [6], 0.331 µM (active); in assay [7], 0.326 µM (active); in [8], > 20 µM (inactive). Further, the IC50 in [9] and in assay [10] was 0.001 µM (active) in each case.

As for `C[C@@H]1CCCCO[C@@H](CN(C)C(=O)Nc2cccc3ccccc23)[C@H](C)CN([C@H](C)CO)C(=O)c2cc(NS(=O)(=O)c3ccccc3)ccc2O1`, the AC50 in assay [11] was > 70 µM (inactive); in assay [12] it was 3.66 µM (active).

In the case of `CCOC(=O)/C(C#N)=C\c1c(OCC)n(CC)c2ccccc12`, the CC50 (usually the concentration that lowers cell viability or growth by half) in assay [13] was 100 µM (active).

Turning to `CC(NC(=O)CN(c1cccc(C(F)(F)F)c1)S(=O)(=O)c1ccc(Cl)c([N+](=O)[O-])c1)c1ccccc1` (centres undefined), the IC50 in [14] was 15.6 µM (inactive).

On to `CCOP(=S)(OCC)SCSc1ccc(Cl)cc1` [CARBOFENOTION], for which the IC50 in assay [4], in [5], in assay [15], in assay [9], in assay [10] and in assay [16] was > 20 µM (inactive) each time.

As for `C=CCN1C(=O)NC(=O)/C(=C(/CC)NCCN2CCOCC2)C1=O`, the IC50 in [17] was > 100 µM (active).

For `Cc1cc(C(=O)NNC(S)=NC(C)c2ccccc2)c2ccccc2n1` (centres undefined), in assay [2], the IC50 was > 122 µM (inactive). For the same molecule, the concentration giving a half-maximal response (EC50) – broadly, the concentration giving half of the maximal effect – in [18] is > 38 µM (not active); in assay [19], > 150 µM (inactive).

`O=C1NC(=O)/C(=C\c2ccc(Oc3cnccn3)cc2)S1`: in [20], the AC50 was 4.71 µM (active).

On to `CC1=NN(c2ccc(Cl)c(C(=O)O)c2)C(=O)/C1=C/c1ccc(-c2ccccc2[N+](=O)[O-])o1`, for which the IC50 in assay [21] is 28.7 µM (active); in [22], 15.7 µM (active); in assay [23] it was 9.5 µM (active). Moreover, in assay [13], the CC50 is 100 µM (active).
